Measured values taken from ChEMBL document CHEMBL1201862, “PubChem BioAssay data set” (2004).
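Briefly, cells in 96-well plates were exposed to five compound concentrations for 48 h, and endpoints were estimated by linear interpolation. Here, GI50 denotes the concentration required for 50% inhibition of growth.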 Calls of active or inactive are those of the source. No stated cut-off is given here; in the data, active = GI50 up to about 1.1 µM and inactive = higher.

Legend:
Assay in all cases: NCI-60 cell line screen, 48 h
HT-29 = system: HT-29
SN12C = system: SN12C
SF-295 = system: SF-295
TK-10 = system: TK-10
KM-20L2 = system: KM-20L2
M14 = system: M14
DMS-273 = system: DMS-273
IGROV-1 = system: IGROV-1
HL-60 = system: HL-60
SF-539 = system: SF-539
A549 = system: A549
UO-31 = system: UO-31
A498 = system: A498
RPMI-8226 = system: RPMI-8226
LXFL 529 = system: LXFL 529
CAKI-1 = system: CAKI-1
NCI-H522 = system: NCI-H522
SK-MEL-5 = system: SK-MEL-5
Malme-3M = system: Malme-3M
EKVX = system: EKVX
SNB-19 = system: SNB-19
NCI-H23 = system: NCI-H23
NCI-H460 = system: NCI-H460
ACHN = system: ACHN
KM12 = system: KM12
UACC-257 = system: UACC-257
SW-620 = system: SW-620
COLO 205 = system: COLO 205
CCRF-CEM = system: CCRF-CEM
K562 = system: K562
NCI-H226 = system: NCI-H226
RXF 393 = system: RXF 393
SK-OV-3 = system: SK-OV-3
MOLT-4 = system: MOLT-4
SF-268 = system: SF-268
SNB-75 = system: SNB-75
SNB-78 = system: SNB-78
HCT-15 = system: HCT-15
SK-MEL-2 = system: SK-MEL-2
HOP-62 = system: HOP-62
HCC 2998 = system: HCC 2998
M19-MEL = system: M19-MEL
HCT-116 = system: HCT-116
OVCAR-4 = system: OVCAR-4
HOP-18 = system: HOP-18
UACC-62 = system: UACC-62
OVCAR-8 = system: OVCAR-8
U-251 = system: U-251
RXF 631 = system: RXF 631
OVCAR-3 = system: OVCAR-3
OVCAR-5 = system: OVCAR-5
DMS-114 = system: DMS-114
786-0 = system: 786-0

Q: What does the source list for `COC(=O)c1c(OC)cccc1C(=O)O`?
A: GI50 (HT-29): > 100 µM (inactive); GI50 (SN12C): > 100 µM (inactive); GI50 (SF-295): > 100 µM (inactive); GI50 (TK-10): > 100 µM (inactive); GI50 (KM-20L2): > 100 µM (inactive); GI50 (M14): > 100 µM (inactive); GI50 (DMS-273): > 100 µM (inactive); GI50 (IGROV-1): > 100 µM (inactive); GI50 (HL-60): > 100 µM (inactive); GI50 (SF-539): > 100 µM (inactive); GI50 (A549): > 100 µM (inactive); GI50 (UO-31): > 100 µM (inactive); GI50 (A498): > 100 µM (inactive); GI50 (RPMI-8226): > 100 µM (inactive); GI50 (LXFL 529): > 100 µM (inactive); GI50 (CAKI-1): > 100 µM (inactive); GI50 (NCI-H522): > 100 µM (inactive); GI50 (SK-MEL-5): > 100 µM (inactive); GI50 (Malme-3M): > 100 µM (inactive); GI50 (EKVX): > 100 µM (inactive); GI50 (SNB-19): > 100 µM (inactive); GI50 (NCI-H23): > 100 µM (inactive); GI50 (NCI-H460): > 100 µM (inactive); GI50 (ACHN): > 100 µM (inactive); GI50 (KM12): > 100 µM (inactive); GI50 (UACC-257): > 100 µM (inactive); GI50 (SW-620): > 100 µM (inactive); GI50 (COLO 205): > 100 µM (inactive); GI50 (CCRF-CEM): > 100 µM (inactive); GI50 (K562): > 100 µM (inactive); GI50 (NCI-H226): > 100 µM (inactive); GI50 (RXF 393): > 100 µM (inactive); GI50 (SK-OV-3): > 100 µM (inactive); GI50 (MOLT-4): > 100 µM (inactive); GI50 (SF-268): > 100 µM (inactive); GI50 (SNB-75): > 100 µM (inactive); GI50 (SNB-78): > 100 µM (inactive); GI50 (HCT-15): > 100 µM; GI50 (SK-MEL-2): > 100 µM (inactive); GI50 (HOP-62): > 100 µM (inactive); GI50 (HCC 2998): > 100 µM (inactive); GI50 (M19-MEL): > 100 µM (inactive); GI50 (HCT-116): > 100 µM (inactive); GI50 (OVCAR-4): > 100 µM (inactive); GI50 (HOP-18): > 100 µM (inactive); GI50 (UACC-62): > 100 µM (inactive); GI50 (OVCAR-8): > 100 µM (inactive); GI50 (U-251): > 100 µM (inactive); GI50 (RXF 631): > 100 µM (inactive); GI50 (OVCAR-3): > 100 µM (inactive); GI50 (OVCAR-5): > 100 µM (inactive); GI50 (DMS-114): > 100 µM (inactive); GI50 (786-0): > 100 µM (inactive)
